Series [1] is described as follows: Rat pharmacokinetics. The series is classed as in vivo. Also noted: AUC: concentration or dose not given beside the values. The note with it: male Sprague-Dawley rats, plasma, route not given; for half-life: read-out: Rat T1/2 (converted). On the procedure:
Intravenous dosing: Compounds were formulated at 0.5 mg/mL in a solution comprising 5% polyethylene glycol 400 and 95% (12% (w/v) sulfobutyl-β-cyclodextrin in water) (v/v). Formulated compounds were sterile filtered through a 0.22 micron filter before dosing. Compounds were administered to male, 7-11-week-old Sprague-Dawley rats by jugular vein cannula infusion over 30 minutes at a dose of 1 mg/kg. […]
Sample collection: Blood collections of about 0.2 mL per time point were performed from jugular vein or other suitable site of each animal, into pre-chilled commercial EDTA-K2 tubes and placed on wet ice until centrifugation. Blood samples were processed for plasma by centrifugation at approximately 4° C., 3,200 g for 10 min. Plasma was collected and transferred into pre-labeled 96 well plate or polypropylene tubes, quick frozen over dry ice and kept at −60° C. or lower until LC-MS/MS analysis.
Data analysis: Plasma concentration versus time data was plotted in graph and analyzed by non-compartmental approaches using the Phoenix WinNonlin 6.3 software program. Related PK parameters were calculated according to dosing route, e.g., CL, Vdss and C0 for intravenous administration, Cmax, Tmax or % F for extravascular administration, and T1/2, AUC(0-t), AUC(0-inf), MRT(0-t), MRT(0-inf) for all routes.

Series [2] can be described thus: Rat pharmacokinetics. The class given is in vivo. Conditions: male Sprague-Dawley rats, plasma, route not stated in table (IV or oral gavage 10 mL/kg of 0.3 or 0.6 mg/mL).
A short description of series [3]: Metabolic stability in hepatocytes. The series is classed as in vitro ADME. Conditions: cryopreserved human hepatocytes (suspension), 1×10^6 cells/mL; for half-life at 1 μM: 0-240 min, read-out: hHep t1/2; for CLint scaled at 1 μM: intrinsic clearance, read-out: hHep CLint. On the procedure: Test compounds are incubated in human hepatocytes and stability is assessed from the substrate […] approach. Test compounds are dissolved in dimethyl sulfoxide (DMSO) to create a 10 mM Stock, and then further diluted to create a 1000× Working Stock of 1 mM with DMSO in 96-well plates for test compounds and the positive control (midazolam). Vials containing cryopreserved hepatocytes are removed from the liquid nitrogen tank and immediately immersed in a 37° C. water bath. The vials are shaken gently until the contents had thawed and were then immediately emptied into 48 mL of pre-warmed HT Medium in a 50 mL conical tube. Cells remaining in the vial are resuspended with 1.0 mL of pre-warmed HT Medium and added to the conical tube. The tube is capped and then gently inverted several times to resuspend the hepatocytes. The cell suspension is centrifuged at 50×g at room temperature for 5 minutes and the supernatant discarded. The cell pellet is loosened by gently swirling the centrifuge tube and is re-suspended in 4 mL of warm Dulbecco's Modified Eagle medium (DMEM). Cell density is determined by a cell counter by Nexcelom, and DMEM medium is added to obtain a target density of 1×10^6 cells/mL. The assay is carried out in 96-well microtiter plates. Test Compounds are incubated at 1 μM with 1×10^6 cells/mL hepatocytes in DMEM for 0, 30, 60, 120 and 240 minutes. The incubation is carried out with gentle shaking at 37° C. under a humid atmosphere of 95% air/5% CO2. The volume of the incubation mixture is 37 μL with a final 0.1% DMSO. At each of the time points, the incubation is stopped by adding 150 μL quenching solution (100% acetonitrile, 0.1% formic acid containing bucetin as an internal standard for positive ESI mode). Subsequently, the mixtures are vortexed for 20 min and centrifuged at 4,000 RPM at 10° C. The supernatant (80 μL) is transferred to a clean 96-well plate and analyzed by LC-MS/MS. Midazolam at 1 μM with a final 0.1% DMSO is included as a positive control to verify assay performance. The percent parent remaining, intrinsic and predicted hepatic clearance and t1/2 are calculated. All samples are analyzed by LC-MS/MS using an AB Sciex API 4000 instrument, coupled to a Shimadzu LC-20AD LC Pump system. Separation is achieved using a Waters Atlantis T3 dC18 reverse phase HPLC column (20 mm×2.1 mm) at a flow rate of 0.5 mL/min. The mobile phase consisted of 0.1% formic acid in water (solvent A) and 0.1% formic acid in 100% acetonitrile (solvent B). Elution conditions are detailed below.
The ion optics of each test compound are optimized for their declustering potential (DP), […] (CE), collision-cell exit potential (CXP) and used in a selected ion monitoring experiment in the positive ion mode. The peak area ratio of each test compound to internal standard is then evaluated for stability. The extent of metabolism is calculated based on the disappearance of the test compound, compared to its initial concentration. The initial rates of clearance of the test compound are calculated using the linear regression plot of semi-log % remaining of the compound versus time. The elimination rate constant (k) of the linear regression plot is then used to determine t1/2 and the intrinsic clearance (CLint) using the following formula, where Chepatocyte (million cells/mL) is the cell density of the incubation: k=−slope t1/2=0.693/k CLint=k/Chepatocyte
Test compounds were incubated in human hepatocytes and stability was assessed from the substrate […] approach. Test compounds were dissolved in dimethyl sulfoxide (DMSO) to create a 10 mM Stock, and then further diluted to create a 1000× Working Stock of 1 mM with DMSO in 96-well plates for test compounds and the positive control (midazolam). Vials containing cryopreserved hepatocytes were removed from the liquid nitrogen tank and immediately immersed in a 37° C. water bath. […]

By AUC is commonly meant the area under the concentration-time curve, a measure of exposure. What is called Cmax is the highest concentration seen after dosing.

SMILES strings stand for the structures.

`N#Cc1ccc(COc2cccc(N3CCN(Cc4nc5ccc(C(=O)O)cc5n4Cc4cncs4)[C@@H]4C[C@@H]43)n2)c(F)c1` (single isomer, unassigned) [Compound 1, 2-((5-(6-((4-cyano-2-fluorobenzyl)oxy)pyridin-2-yl)-2,5-diazabicyclo[4.1.0]heptan-2-yl)methyl)-1-(thiazol-5-ylmethyl)-1H-benzo[d]imidazole-6-carboxylic Acid]: in series [1], the AUC stood at 71.8 ± 90.3 ng·h/mL and the half-life was 4.58 h. The compound also returned a Cmax in series [2] of 34.7 ± 13.7 ng/mL. Moreover, in series [3], the half-life at 1 μM was 3.36 h and the CLint scaled at 1 μM was 11.9 mL/min/kg.

For the compound `N#Cc1ccc(COc2cccc(N3CCN(Cc4nc5ccc(C(=O)O)cc5n4Cc4cncs4)[C@H]4C[C@H]43)n2)c(F)c1` (single isomer, unassigned) [Compound 2, 2-((5-(6-((4-Cyano-2-fluorobenzyl)oxy)pyridin-2-yl)-2,5-diazabicyclo[4.1.0]heptan-2-yl)methyl)-1-(thiazol-5-ylmethyl)-1H-benzo[d]imidazole-6-carboxylic Acid], in series [1], the AUC was 63.5 ± 11.1 ng·h/mL and the half-life is 2.41 h. In series [2], the Cmax was found to be 44.1 ± 6.5 ng/mL. Moreover, in series [3], the CLint scaled at 1 μM worked out at 5.01 mL/min/kg.

For `N#Cc1ccc(COc2cccc([C@H]3CCN(Cc4nc5ccc(C(=O)O)cc5n4Cc4cncs4)[C@@H]4C[C@H]34)n2)c(F)c1` (single isomer, unassigned) [Compound 4, 2-((5-(6-((4-Cyano-2-fluorobenzyl)oxy)pyridin-2-yl)-2-azabicyclo[4.1.0]heptan-2-yl)methyl)-1-(thiazol-5-ylmethyl)-1H-benzo[d]imidazole-6-carboxylic Acid], in series [1], the AUC is 86.3 ± 27.2 ng·h/mL and the half-life was 0.92 h. Also, in series [2], the Cmax worked out at 70 ± 32 ng/mL. In addition, in series [3], the half-life at 1 μM amounted to 2.87 h and the CLint scaled at 1 μM worked out at 14 mL/min/kg.

Consider `N#Cc1ccc(COc2cccc([C@@H]3CCN(Cc4nc5ccc(C(=O)O)cc5n4Cc4cncs4)[C@@H]4C[C@@H]43)n2)c(F)c1` (single isomer, unassigned) [Compound 5, 2-((5-(6-((4-Cyano-2-fluorobenzyl)oxy)pyridin-2-yl)-2-azabicyclo[4.1.0]heptan-2-yl)methyl)-1-(thiazol-5-ylmethyl)-1H-benzo[d]imidazole-6-carboxylic Acid], for which, in series [1], the AUC worked out at 418 ± 49.6 ng·h/mL and the half-life is 1.31 h. The compound further displayed a Cmax in series [2] of 282 ± 4.04 ng/mL. In addition, in series [3], the half-life at 1 μM was determined as 5.37 h and the CLint scaled at 1 μM is 7.46 mL/min/kg.

Consider `N#Cc1ccc(COc2cccc([C@H]3CCN(Cc4nc5ccc(C(=O)O)cc5n4Cc4cncs4)[C@H]4C[C@@H]34)n2)c(F)c1` (single isomer, unassigned) [Compound 14, 2-((5-(6-((4-Cyano-2-fluorobenzyl)oxy)pyridin-2-yl)-2-azabicyclo[4.1.0]heptan-2-yl)methyl)-1-(thiazol-5-ylmethyl)-1H-benzo[d]imidazole-6-carboxylic Acid], for which, in series [1], the AUC was found to be 66.8 ± 7.06 ng·h/mL and the half-life is 0.645 h. Moreover, the concentration in series [2] peaked (Cmax) at 59.3 ± 5.68 ng/mL. In series [3], the half-life at 1 μM turned out to be 5.1 h and the CLint scaled at 1 μM was 7.86 mL/min/kg.

For the compound `N#Cc1ccc(COc2cccc([C@@H]3CCN(Cc4nc5ccc(C(=O)O)cc5n4Cc4cncs4)[C@H]4C[C@@H]34)n2)c(F)c1` (single isomer, unassigned) [Compound 15, 2-((5-(6-((4-Cyano-2-fluorobenzyl)oxy)pyridin-2-yl)-2-azabicyclo[4.1.0]heptan-2-yl)methyl)-1-(thiazol-5-ylmethyl)-1H-benzo[d]imidazole-6-carboxylic Acid], in series [1], the AUC came out at 71.7 ± 16.1 ng·h/mL and the half-life is 0.597 h. The compound also gave a Cmax in series [2] of 77.4 ± 16.2 ng/mL. In series [3], the half-life at 1 μM stood at 4.33 h and the CLint scaled at 1 μM was found to be 9.24 mL/min/kg.

In the case of `N#Cc1ccc(COc2cccc(N3CCN(Cc4nc5ccc(C(=O)O)cc5n4C[C@@H]4CCO4)[C@@H]4C[C@@H]43)n2)c(F)c1` (single isomer, unassigned) [Compound 43], in series [1], the AUC was determined as 118 ± 10 ng·h/mL and the half-life was 1.19 h. Moreover, the highest level in series [2] (Cmax) was 64.5 ± 17.8 ng/mL. In series [3], the half-life at 1 μM was 5.65 h and the CLint scaled at 1 μM amounted to 7.09 mL/min/kg.

Take `CC1(c2ccc(C#N)cc2F)Oc2cccc(C3CCN(Cc4nc5ccc(C(=O)O)cc5n4Cc4cncs4)CC3)c2O1` (centres unmarked) [Compound 18]: in series [1], the AUC amounted to 84.9 ± 32.2 ng·h/mL and the half-life was 0.89 h. In addition, the Cmax in series [2] worked out at 89.5 ± 23.6 ng/mL. In series [3], the half-life at 1 μM stood at 0.23 h and the CLint scaled at 1 μM came to 17.5 mL/min/kg.

As for `N#Cc1ccc(COc2ccnc(N3CCN(Cc4nc5ccc(C(=O)O)cc5n4Cc4cncs4)[C@@H]4C[C@@H]43)n2)c(F)c1` [Compound 20, 2-((5-(4-((4-Cyano-2-fluorobenzyl)oxy)pyrimidin-2-yl)-2,5-diazabicyclo[4.1.0]heptan-2-yl)methyl)-1-(thiazol-5-ylmethyl)-1H-benzo[d]imidazole-6-carboxylic Acid], in series [1], the AUC was found to be 22.9 ± 30 ng·h/mL and the half-life is 0.578 h. Besides, the concentration in series [2] peaked (Cmax) at 15.5 ± 7.15 ng/mL. In series [3], the half-life at 1 μM turned out to be 6.27 h and the CLint scaled at 1 μM was found to be 6.4 mL/min/kg.

In the case of `CC1(c2ccc(C#N)cc2F)Oc2cccc(N3CCN(Cc4nc5ccc(C(=O)O)cc5n4CC4(C#N)CC4)C4CC43)c2O1` (centres unmarked) [Compound 40, 2-((5-(2-(4-Cyano-2-fluorophenyl)-2-methylbenzo[d][1,3]dioxol-4-yl)-2,5-diazabicyclo[4.1.0]heptan-2-yl)methyl)-1-((1-cyanocyclopropyl)methyl)-1H-benzo[d]imidazole-6-carboxylic Acid], in series [1], the AUC amounted to 44.2 ± 8.62 ng·h/mL and the half-life is 2.78 h. In series [2], this compound yielded a Cmax of 28.3 ± 6.42 ng/mL. In series [3], the half-life at 1 μM was determined as 6.85 h and the CLint scaled at 1 μM came to 5.86 mL/min/kg.

The compound `CCn1nncc1Cn1c(CN2CCN(c3cccc(OCc4ccc(C#N)cc4F)n3)[C@H]3C[C@H]32)nc2ccc(C(=O)O)cc21` [Compound 45, 2-((5-(6-((4-Cyano-2-fluorobenzyl)oxy)pyridin-2-yl)-2,5-diazabicyclo[4.1.0]heptan-2-yl)methyl)-1-((1-ethyl-1H-1,2,3-triazol-5-yl)methyl)-1H-benzo[d]imidazole-6-carboxylic Acid] returned an AUC in series [1] of 9.48 ng·h/mL. In series [2], this compound had a Cmax of 9.62 ng/mL. Further, in series [3], the half-life at 1 μM is 6.2 h and the CLint scaled at 1 μM came to 6.46 mL/min/kg.

These data come from patent US12410163B2, “Compounds as GLP-IR agonists” (Terns Pharmaceuticals, Inc., priority 2022, dated 2025).
